Series [1] is described as follows: Half life in serum (unknown origin). It is filed as ADME, cell-free.
The target in a further series is T1, Bile acid receptor (Homo sapiens, UniProt Q96RI1).
T1 sequence (Q96RI1 whole entry): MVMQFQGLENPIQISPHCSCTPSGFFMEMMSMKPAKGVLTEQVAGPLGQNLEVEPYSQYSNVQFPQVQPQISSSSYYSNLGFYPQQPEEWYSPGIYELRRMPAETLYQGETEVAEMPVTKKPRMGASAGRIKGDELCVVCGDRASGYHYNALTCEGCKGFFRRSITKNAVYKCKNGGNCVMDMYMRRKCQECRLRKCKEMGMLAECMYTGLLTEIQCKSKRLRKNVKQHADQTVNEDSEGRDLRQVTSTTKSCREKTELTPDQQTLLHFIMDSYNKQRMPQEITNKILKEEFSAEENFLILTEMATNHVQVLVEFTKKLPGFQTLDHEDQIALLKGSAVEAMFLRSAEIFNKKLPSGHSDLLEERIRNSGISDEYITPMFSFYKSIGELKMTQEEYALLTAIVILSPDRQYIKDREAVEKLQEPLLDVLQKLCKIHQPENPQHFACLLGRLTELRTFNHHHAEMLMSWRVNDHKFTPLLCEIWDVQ
Description: Antagonist activity at GST-tagged FXR LBD (unknown origin) assessed as inhibition of CDCA-induced Bio-SRC-1 recruitment after 30 mins by HTRF assay.

Series [2] addresses T2, Bile acid receptor (Homo sapiens) (UniProt Q96RI1).
T2 sequence (whole entry): T1 sequence (Q96RI1 whole entry)
The series can be described thus: Potency index, ratio of guggulsterone IC50 to compound IC50 for GST-tagged FXR LBD (unknown origin).

`C=CCOc1ccc(NC(=O)c2ccc(Cl)cc2Cl)cc1C(C)(C)C` came in with a half-life in series [1] greater than 1 h. The IC50 on Bile acid receptor was greater than 100 µM.
Take `CC(C)(C)c1cc(NC(=O)c2c(Cl)cc(NCc3ccncc3)cc2Cl)ccc1O`: the half-life in series [1] was greater than 1 h. In addition, the IC50 at Bile acid receptor was found to be 9.8 µM.
In the same order, the values of `CC(C)(C)c1cc(OC(=O)c2ccco2)ccc1O` are less than 0.25 h and greater than 100 µM.
In series [1], `Cc1ccc(C(=O)Oc2ccc(O)c(C(C)(C)C)c2)cc1` displayed a half-life of less than 0.25 h. The IC50 at Bile acid receptor is greater than 100 µM.
For `CC(C)(C)c1cc(OC(=O)c2ccc([N+](=O)[O-])cc2Cl)ccc1O`, in that order: less than 0.25 h and 8.8 µM.
In turn, `CC(C)(C)c1cc(NC(=O)c2c(Cl)cc(NCc3cccs3)cc2Cl)ccc1O` registered a half-life in series [1] greater than 1 h. Besides, the IC50 at Bile acid receptor turned out to be 8.6 µM.
Take `CC(C)(C)c1cc(NC(=O)c2c(Cl)cc(NC3CCCC3)cc2Cl)ccc1O`: the half-life in series [1] was greater than 1 h. The 50% inhibitory concentration (IC50) on Bile acid receptor came to 5 µM.
For `CNc1cc(Cl)c(C(=O)Nc2ccc(O)c(C(C)(C)C)c2)c(Cl)c1`, in that order: greater than 1 h and 13.9 µM.
Consider `CC(C)(C)c1cc(NC(=O)c2c(Cl)cc(N)cc2Cl)ccc1O`, for which, in series [1], the half-life is greater than 1 h. Further, on Bile acid receptor, the concentration for half-maximal inhibition (IC50) was 5.2 µM.
`CC(C)(C)c1cc(NC(=O)c2ccc(Cl)cc2Cl)ccc1O` showed a half-life in series [1] greater than 1 h. Also, on Bile acid receptor, the IC50 worked out at 13.6 µM.
The molecule `CCc1cc(NC(=O)c2ccc(Cl)cc2Cl)ccc1O` gave a half-life in series [1] greater than 1 h. Moreover, on Bile acid receptor, the IC50 is greater than 100 µM.
In the case of `CN(C)c1cc(Cl)c(C(=O)Nc2ccc(O)c(C(C)(C)C)c2)c(Cl)c1`, in series [1], the half-life is greater than 1 h. The IC50 on Bile acid receptor worked out at 1.4 µM.
For `CN(C)c1cc(Cl)c(C(=O)N(c2ccc(O)c(C(C)(C)C)c2)C2CCCCC2)c(Cl)c1`, in that order: greater than 1 h and greater than 100 µM.
As to `CC(C)(C)c1cc(OC(=O)c2c(Cl)cc([N+](=O)[O-])cc2Cl)ccc1O`, the half-life in series [1] was less than 0.25 h. For the same molecule, the IC50 at Bile acid receptor came to 5.9 µM.
In the same order, the values of `COc1ccccc1C(=O)Oc1ccc(O)c(C(C)(C)C)c1` are less than 0.25 h and greater than 100 µM.
In the same order, the values of `CC(C)(C)c1cc(OC(=O)c2ccc(Cl)cc2Cl)ccc1O` are 0.167 h and 10.2 µM.
In the same order, the values of `CC(=O)Oc1ccc(NC(=O)c2ccc(Cl)cc2Cl)cc1C(C)(C)C` are greater than 1 h and 15.5 µM.
Regarding `CCNc1cc(Cl)c(C(=O)Nc2ccc(O)c(C(C)(C)C)c2)c(Cl)c1`, the half-life in series [1] was greater than 1 h. Further, the IC50 at Bile acid receptor was 28.7 µM.
For `CN(C)c1cc(Cl)c(C(=O)N(Cc2cccnc2)c2ccc(O)c(C(C)(C)C)c2)c(Cl)c1`, in that order: greater than 1 h and 6.3 µM.
For `CC(C)(C)c1cc(NC(=O)c2ccc(Cl)cc2Cl)cc(C(C)(C)C)c1O`, in that order: greater than 1 h and greater than 100 µM.
In the same order, the values of `CC(C)(C)c1cc(OC(=O)Cc2ccccc2)ccc1O` are less than 0.25 h and greater than 100 µM.
`COc1ccc(NC(=O)c2ccc(Cl)cc2Cl)cc1C(C)(C)C`: the half-life in series [1] was greater than 1 h. Also, the IC50 on Bile acid receptor was greater than 100 µM.
`CC(C)(C)c1cc(OC(=O)c2ccc(Cl)cc2)ccc1O` displayed a half-life in series [1] of less than 0.25 h. The 50% inhibitory concentration (IC50) on Bile acid receptor is greater than 100 µM.
For `CC(C)(C)c1cc(OC(=O)c2ccc([N+](=O)[O-])cc2)ccc1O`, in that order: less than 0.25 h and 12.7 µM.
As for `CC(C)(C)c1cc(OC(=O)c2c(Cl)cc(N)cc2Cl)ccc1O`, the half-life in series [1] was less than 0.25 h. Also, the Ratio IC50 in series [2] amounted to 100. The IC50 at Bile acid receptor was 0.6 µM.
For the molecule `CC(C)c1cc(NC(=O)c2ccc(Cl)cc2Cl)ccc1O`, the half-life in series [1] is greater than 1 h. In addition, the half-inhibitory concentration (IC50) at Bile acid receptor was greater than 100 µM.
Take `Cc1cc(NC(=O)c2ccc(Cl)cc2Cl)ccc1O`: the half-life in series [1] is greater than 1 h. Also, the IC50 on Bile acid receptor was greater than 100 µM.
In the same order, the values of `CC(C)(C)c1cc(OC(=O)c2ccc(N)cc2)ccc1O` are less than 0.25 h and 34.2 µM.
Take `CC(C)(C)c1cc(OC(=O)c2ccccc2)ccc1O`: the half-life in series [1] is less than 0.25 h. In addition, the IC50 on Bile acid receptor was greater than 100 µM.
As for `CN(C)c1cc(Cl)c(C(=O)N(CC2CCCCC2)c2ccc(O)c(C(C)(C)C)c2)c(Cl)c1`, the half-life in series [1] is greater than 1 h. In addition, the IC50 at Bile acid receptor is greater than 100 µM.
For `CC(C)(C)c1cc(NC(=O)c2c(Cl)cc(NC3CCCCC3)cc2Cl)ccc1O`, in that order: greater than 1 h and 2.5 µM.
`Cc1ccccc1C(=O)Oc1ccc(O)c(C(C)(C)C)c1`: the half-life in series [1] was less than 0.25 h. In addition, the IC50 on Bile acid receptor is greater than 100 µM.
For `CC(C)(C)c1cc(NC(=O)c2c(Cl)cc(N3CCNCC3)cc2Cl)ccc1O`, in that order: greater than 1 h and greater than 100 µM.
In turn, `CC(C)(C)c1cc(NC(=O)c2c(Cl)cc(N3CCCCC3)cc2Cl)ccc1O` had a half-life in series [1] greater than 1 h. In addition, the half-maximal inhibitory concentration (IC50) at Bile acid receptor is greater than 100 µM.
In the same order, the values of `CC(C)(C)c1cc(OC(=O)c2ccc(N)cc2Cl)ccc1O` are less than 0.25 h and 7.2 µM.
For `CN(c1cc(Cl)c(C(=O)Nc2ccc(O)c(C(C)(C)C)c2)c(Cl)c1)C1CCCCC1`, in that order: greater than 1 h and greater than 100 µM.
For the molecule `CN(C)c1cc(Cl)c(C(=O)N(C)c2ccc(O)c(C(C)(C)C)c2)c(Cl)c1`, the half-life in series [1] was greater than 1 h. For the same molecule, at Bile acid receptor, the IC50 is 3.9 µM.
For `CC(C)(C)c1cc(OC(=O)/C=C/c2ccccc2)ccc1O`, in that order: less than 0.25 h and greater than 100 µM.
For `CC(C)(C)c1cc(NC(=O)c2c(Cl)cc(NCc3cccnc3)cc2Cl)ccc1O`, in that order: greater than 1 h and 3.6 µM.

The half-life is the time needed for the level to fall by half in the phase considered. Read a low half-life as fast loss. As usually defined, the IC50 is the point on the concentration scale where inhibition reaches its midpoint.

The values above are taken from ChEMBL document CHEMBL3612053, “Discovery and SAR study of 3-(tert-butyl)-4-hydroxyphenyl benzoate and benzamide derivatives as novel farnesoid X receptor (FXR) antagonists” (Bioorg Med Chem, 2015).
